47 compounds from patent US8048898B2, “Inhibitor of binding of S1P1” (Taisho Pharmaceutical Co., Ltd, priority 2007, dated 2011) can be followed below.

For the assay, the target named is T1, human Edg-1(S1P1) (Homo sapiens, UniProt P21453).
T1 construct: expressed in transfected cells; host or cells: HEK-293
The experiment in a line: S1P1 Binding Test ([33P]-S1P, membrane fraction of HEK-293 cell line carrying the human Edg-1(S1P1) gene). The following applies: [33P]-S1P 0.1 nM; for IC50: membrane binding test at various concentrations, read-out: IC50 value, Edg-1(S1P1) binding inhibition; for inhibition at 10 µM: compound at 10 μM, 30° C., 1 hour, read-out: inhibition rate of Edg-1(S1P1) binding. On the procedure: The membrane fraction of a HEK-293 cell line carrying the human Edg-1(S1P1) gene was used to study the compounds of the present invention for their inhibitory effect on Edg-1(S1P1) binding, as described in Science. […] To obtain the membrane fraction, treatment with solubilizing buffer (1 mM Tris/HCl, pH 7.2) for 10 minutes on ice was performed, followed by centrifugation at 1000×g for 5 minutes to remove an insoluble fraction and then at 40000×g for 30 minutes at 4° C. The resulting membrane fraction was dissolved in binding buffer (20 mM Tris-HCl, pH 7.4, 100 mM NaCl, 15 mM NaF, 2 mM deoxypyridoxine, 4 mg/mL fatty acid-free BSA), followed by addition of binding buffer containing [^33P]-S1P (ARC, final concentration: 0.1 nM) and DMSO solution of a test compound (final concentration of the compound: 10^−5 M, final concentration of DMSO: 0.1%). After stirring, the reaction solution was incubated at 30° C. for 1 hour. The membrane fraction was collected onto a unifilter-96 GF/C filter (Perkin Elmer) using a harvester and washed four times with binding buffer, followed by drying the filter. After addition of 25 μL Microscint 0 (Perkin Elmer), radioactivity was measured with a Top Count NXT (Packard) to calculate amount (A), i.e., the amount of [^33P]-S1P binding to the membrane fraction in the presence of the compound.
The same procedure was performed in the absence of any test compound to calculate amount (B), i.e., the amount of [^33P]-S1P binding. Moreover, the same procedure was also performed with HEK-293 cells carrying no Edg-1(S1P1) gene in the absence of any test compound to calculate amount (C), i.e., the amount of background [^33P]-S1P binding.
The inhibition rate of Edg-1(S1P1) binding was calculated for each compound by the following equation. Inhibition rate (%)=[1−(A−C)/(B−C)]×100
Moreover, the activity of each test compound was calculated as a value (IC50 value) showing 50% of the radioactivity obtained in the absence of any test compound. Namely, the above membrane system binding test was performed in the presence of a test compound at various concentrations to calculate an IC50 value according to the dose-dependent inhibition curve analyzed with data analysis software, Origin (Lightstone Corp., Japan).

T1 sequence (P21453 whole entry): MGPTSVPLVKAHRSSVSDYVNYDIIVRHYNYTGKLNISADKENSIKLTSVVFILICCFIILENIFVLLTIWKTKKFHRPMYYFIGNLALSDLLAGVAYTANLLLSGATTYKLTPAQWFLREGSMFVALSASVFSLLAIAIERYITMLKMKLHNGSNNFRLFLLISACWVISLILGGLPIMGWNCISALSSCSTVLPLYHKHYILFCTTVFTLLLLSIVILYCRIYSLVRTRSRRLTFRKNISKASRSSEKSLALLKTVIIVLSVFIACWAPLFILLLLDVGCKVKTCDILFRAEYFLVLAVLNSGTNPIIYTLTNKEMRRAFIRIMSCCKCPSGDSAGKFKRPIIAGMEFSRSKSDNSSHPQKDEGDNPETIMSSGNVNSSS

As to “5-Chloro-naphthalene-2-sulfonic acid (1-{3-ethyl-4-[3-(4-methyl-piperazin-1-yl)-phenoxy]-pyridin-2-yl}-ethyl)-amide [Compound 4]”, the IC50 (in general, the concentration needed to halve the response being measured) is 121 nM.
For the compound `CCc1c(C(C)NS(=O)(=O)c2ccc3c(Cl)cccc3c2)ccnc1Sc1cccc(N2CCN(C)CC2)c1` (single isomer, unassigned) [Compound 61], the inhibition (as a rule, the drop in the measured response relative to a control, in per cent) at 10 µM was at least 3% and the IC50 came out at 33 nM.
With `CCc1c(Oc2ccc(C)cc2)nc(C)nc1C(C)NS(=O)(=O)c1ccc(Cl)c(Cl)c1` (stereo not drawn) [Compound 1], the inhibition at 10 µM was at least 3%.
For the compound `CCc1c(Oc2ccc(C)cc2)nc(C)nc1C(C)NS(=O)(=O)c1ccc2c(Cl)cccc2c1` (stereo not drawn) [Compound 2], the inhibition at 10 µM was at least 3%.
`CCc1c(C(C)NS(=O)(=O)c2ccc(Cl)c(Cl)c2)ccnc1Oc1cccc(N2CCN(C)CC2)c1` (stereo not drawn) [Compound 3, 3,4-Dichloro-N-(1-{3-ethyl-2-[3-(4-methyl-piperazin-1-yl)-phenoxy]-pyridin-4-yl}-ethyl)-benzenesulfonamide]: the inhibition at 10 µM is at least 3% and the IC50 was 107 nM.
With `CCc1c(Oc2cccc(N3CCN(C)CC3)c2)ccnc1C(C)NS(=O)(=O)c1ccc(Cl)c(Cl)c1` (stereo not drawn) [Compound 5], the inhibition at 10 µM was at least 3%.
`Cc1c(C(C)NS(=O)(=O)c2ccc(Cl)c(Cl)c2)ccnc1Oc1cccc(N2CCN(C)CC2)c1` (stereo not drawn) [Compound 6]: the inhibition at 10 µM is at least 3%.
Take `Cc1c(C(C)NS(=O)(=O)c2ccc3c(Cl)cccc3c2)ccnc1Oc1cccc(N2CCN(C)CC2)c1` (stereo not drawn) [Compound 7]: the inhibition at 10 µM is at least 3% and the IC50 was at most 200 nM.
For the compound `CC(NS(=O)(=O)c1ccc(Cl)c(Cl)c1)c1ccnc(Oc2cccc(N3CCN(C)CC3)c2)c1` (stereo not drawn) [Compound 8], the inhibition at 10 µM is at least 3%.
On to `CC(NS(=O)(=O)c1ccc2c(Cl)cccc2c1)c1ccnc(Oc2cccc(N3CCN(C)CC3)c2)c1` (stereo not drawn) [Compound 9], for which the inhibition at 10 µM was at least 3%.
On the same count and under the same terms, as for `CCCc1c(C(C)NS(=O)(=O)c2ccc(Cl)c(Cl)c2)ccnc1Oc1cccc(N2CCN(C)CC2)c1` (stereo not drawn) [Compound 10], the figure is at least 3%.
With `CCCc1c(C(C)NS(=O)(=O)c2ccc3c(Cl)cccc3c2)ccnc1Oc1cccc(N2CCN(C)CC2)c1` (stereo not drawn) [Compound 11], the inhibition at 10 µM was at least 3% and the IC50 is at most 200 nM.
Turning to `CCc1c(C(CC)NS(=O)(=O)c2ccc(Cl)c(Cl)c2)ccnc1Oc1cccc(N2CCN(C)CC2)c1` (stereo not drawn) [Compound 12], the inhibition at 10 µM was at least 3%.
For `CCc1c(C(CC)NS(=O)(=O)c2ccc3c(Cl)cccc3c2)ccnc1Oc1cccc(N2CCN(C)CC2)c1` (stereo not drawn) [Compound 13], the inhibition at 10 µM is at least 3% and the IC50 amounted to 47 nM.
For `CCc1c(CNS(=O)(=O)c2ccc(Cl)c(Cl)c2)ccnc1Oc1cccc(N2CCN(C)CC2)c1` [Compound 14], the inhibition at 10 µM is at least 3%.
`CCc1c(CNS(=O)(=O)c2ccc3c(Cl)cccc3c2)ccnc1Oc1cccc(N2CCN(C)CC2)c1` [Compound 15]: the inhibition at 10 µM was at least 3%.
For the compound `CCc1c(C(C)NS(=O)(=O)c2ccc(Cl)c(Cl)c2)ccnc1Oc1ccc(C)cc1` (stereo not drawn) [Compound 16], the inhibition at 10 µM was at least 3%.
Consider `CCc1c(C(C)NS(=O)(=O)c2ccc(Cl)c(Cl)c2)ccnc1Oc1ccc(OC)cc1` (stereo not drawn) [Compound 17], for which the inhibition at 10 µM was at least 3%.
For the compound `CCc1c(C(C)NS(=O)(=O)c2ccc(Cl)c(Cl)c2)ccnc1Oc1ccc(Cl)cc1` (stereo not drawn) [Compound 18], the inhibition at 10 µM was at least 3%.
For the compound `CCc1c(C(C)NS(=O)(=O)c2ccc(Cl)c(Cl)c2)ccnc1Oc1cccc(N2CCOCC2)c1` (stereo not drawn) [Compound 19], the inhibition at 10 µM was at least 3% and the IC50 came out at 66 nM.
In the case of `CCc1c(C(C)NS(=O)(=O)c2ccc(Cl)c(Cl)c2)ccnc1Oc1ccc2ccncc2c1` (stereo not drawn) [Compound 20], the inhibition at 10 µM was at least 3%.
`CCc1c(C(C)NS(=O)(=O)c2ccc(Cl)c(Cl)c2)ccnc1Oc1ccc2ccccc2c1` (stereo not drawn) [Compound 21]: the inhibition at 10 µM was at least 3%.
With `CCc1c(C(C)NS(=O)(=O)c2ccc(Cl)c(Cl)c2)ccnc1Oc1cccc(N(C)C)c1` (stereo not drawn) [Compound 22], the inhibition at 10 µM is at least 3% and the IC50 was at most 200 nM.
For the compound `CCc1c(C(C)NS(=O)(=O)c2ccc(Cl)c(Cl)c2)ccnc1OC` (stereo not drawn) [Compound 23], the inhibition at 10 µM is at least 3%.
Take `CCc1c(C(C)NS(=O)(=O)c2ccc(Cl)c(Cl)c2)ccnc1OCC(F)(F)F` (stereo not drawn) [Compound 24]: the inhibition at 10 µM was at least 3%.
Regarding `CCc1c(C(C)NS(=O)(=O)c2ccc(Cl)c(Cl)c2)ccnc1OCc1ccccc1` (stereo not drawn) [Compound 25], the inhibition at 10 µM was at least 3%.
Regarding `CCc1c(C(C)NS(=O)(=O)c2ccc(Cl)c(Cl)c2)ccnc1OC(C)C` (stereo not drawn) [Compound 26, 3,4-Dichloro-N-[1-(2-isopropoxy-3-ethyl-pyridin-4-yl)-ethyl]-benzenesulfonamide], the inhibition at 10 µM was at least 3%.
As to `CCc1c(C(C)NS(=O)(=O)c2ccc3c(Cl)cccc3c2)ccnc1Oc1cccc(N2CCOCC2)c1` (stereo not drawn) [Compound 27, 5-Chloronaphthalene-2-sulfonic acid {1-[3-ethyl-2-(3-morpholin-4-yl-phenoxy)-pyridin-4-yl]-ethyl}-amide], the inhibition at 10 µM is at least 3% and the IC50 came out at 51 nM.
On the same counts, the results for `CCc1c([C@@H](C)NS(=O)(=O)c2ccc(Cl)c(Cl)c2)ccnc1Oc1cccc(N2CCN(C)CC2)c1` [Compound 28, (R)-3,4-Dichloro-N-(1-{3-ethyl-2-[3-(4-methyl-piperazin-1-yl)-phenoxy]-pyridin-4-yl}-ethyl)-benzenesulfonamide] are at least 3% and 49 nM.
Take `CCc1c([C@H](C)NS(=O)(=O)c2ccc(Cl)c(Cl)c2)ccnc1Oc1cccc(N2CCN(C)CC2)c1` [Compound 29, (S)-3,4-Dichloro-N-(1-{3-ethyl-2-[3-(4-methyl-piperazin-1-yl)-phenoxy]-pyridin-4-yl}-ethyl)-benzenesulfonamide]: the inhibition at 10 µM is at least 3%.
Consider `CCc1c(C(C)NS(=O)(=O)c2ccc(Cl)c(Cl)c2)ccnc1OC1CCC1` (stereo not drawn) [Compound 30], for which the inhibition at 10 µM was at least 3%.
Turning to `CCc1c(C(C)NS(=O)(=O)c2ccc3c(Cl)cccc3c2)ccnc1Oc1cccc(N2CCN(C)CC2)c1` (stereo not drawn) [Compound 31], the inhibition at 10 µM was at least 3% and the IC50 came to 35 nM.
For `CCc1c(C(C)NS(=O)(=O)c2ccccc2)ccnc1Oc1cccc(N2CCOCC2)c1` (stereo not drawn) [Compound 32], the inhibition at 10 µM is at least 3%.
`CCc1c(C(C)NS(=O)(=O)c2ccccc2C)ccnc1Oc1cccc(N2CCOCC2)c1` (stereo not drawn) [Compound 33]: the inhibition at 10 µM was at least 3%.
For the compound `CCc1c(C(C)NS(=O)(=O)c2cccc(C)c2)ccnc1Oc1cccc(N2CCOCC2)c1` (stereo not drawn) [Compound 34], the inhibition at 10 µM was at least 3%.
In the case of `CCc1ccc(S(=O)(=O)NC(C)c2ccnc(Oc3cccc(N4CCOCC4)c3)c2CC)cc1` (stereo not drawn) [Compound 35], the inhibition at 10 µM was at least 3%.
Take `CCc1c(C(C)NS(=O)(=O)c2ccc(OC)cc2)ccnc1Oc1cccc(N2CCOCC2)c1` (stereo not drawn) [Compound 36]: the inhibition at 10 µM is at least 3%.
Consider `CCc1c(C(C)NS(=O)(=O)c2ccc(C(F)(F)F)cc2)ccnc1Oc1cccc(N2CCOCC2)c1` (stereo not drawn) [Compound 37], for which the inhibition at 10 µM is at least 3%.
Regarding `CCc1c(C(C)NS(=O)(=O)c2ccc(OC(F)(F)F)cc2)ccnc1Oc1cccc(N2CCOCC2)c1` (stereo not drawn) [Compound 38], the inhibition at 10 µM was at least 3%.
As for `CCc1c(C(C)NS(=O)(=O)c2ccc([N+](=O)[O-])cc2)ccnc1Oc1cccc(N2CCOCC2)c1` (stereo not drawn) [Compound 39], the inhibition at 10 µM is at least 3%.
In the case of `CCc1c(C(C)NS(=O)(=O)c2ccc(C#N)cc2)ccnc1Oc1cccc(N2CCOCC2)c1` (stereo not drawn) [Compound 40], the inhibition at 10 µM was at least 3%.
As for `CCc1c(C(C)NS(=O)(=O)c2ccc(Cl)cc2)ccnc1Oc1cccc(N2CCOCC2)c1` (stereo not drawn) [Compound 41], the inhibition at 10 µM is at least 3%.
Regarding `CCc1c(C(C)NS(=O)(=O)c2cccc(Br)c2)ccnc1Oc1cccc(N2CCOCC2)c1` (stereo not drawn) [Compound 42], the inhibition at 10 µM was at least 3%.
On to `CCc1c(C(C)NS(=O)(=O)c2ccccc2F)ccnc1Oc1cccc(N2CCOCC2)c1` (stereo not drawn) [Compound 43], for which the inhibition at 10 µM was at least 3%.
Consider `CCc1c(C(C)NS(=O)(=O)c2ccc(C(C)=O)cc2)ccnc1Oc1cccc(N2CCOCC2)c1` (stereo not drawn) [Compound 44], for which the inhibition at 10 µM is at least 3%.
On to `CCc1c(C(C)NS(=O)(=O)c2ccc(F)c(Cl)c2)ccnc1Oc1cccc(N2CCOCC2)c1` (stereo not drawn) [Compound 45], for which the inhibition at 10 µM was at least 3%.
As for `CCc1c(C(C)NS(=O)(=O)c2ccc(C)c(Cl)c2)ccnc1Oc1cccc(N2CCOCC2)c1` (stereo not drawn) [Compound 46], the inhibition at 10 µM was at least 3%.
